Results as given in PMC11504387, “Synthesis and Biological Activity Assessment of 2-Styrylbenzothiazoles as Potential Multifunctional Therapeutic Agents” (Antioxidants, 2024).
Values belong to the compound of their own block, whether it stands above or below them.

Tests used:
[1] = target: T1, 5-LO in A23187-stimulated human PMNL (Homo sapiens, UniProt P09917); assay: 5-Lipoxygenase inhibition in a cell-based assay (PMNL); conditions: PMNL; 3 µM; % relative to vehicle (DMSO); read-out: 5-LO Residual Activity (PMNL)
T1 construct: Freshly isolated PMNL (1 × 10^6 cells/mL) in PBS buffer pH 7.4; endogenous in cells; host or cells: primary human PMNL (neutrophils) isolated from blood
T1 sequence (P09917 1-674): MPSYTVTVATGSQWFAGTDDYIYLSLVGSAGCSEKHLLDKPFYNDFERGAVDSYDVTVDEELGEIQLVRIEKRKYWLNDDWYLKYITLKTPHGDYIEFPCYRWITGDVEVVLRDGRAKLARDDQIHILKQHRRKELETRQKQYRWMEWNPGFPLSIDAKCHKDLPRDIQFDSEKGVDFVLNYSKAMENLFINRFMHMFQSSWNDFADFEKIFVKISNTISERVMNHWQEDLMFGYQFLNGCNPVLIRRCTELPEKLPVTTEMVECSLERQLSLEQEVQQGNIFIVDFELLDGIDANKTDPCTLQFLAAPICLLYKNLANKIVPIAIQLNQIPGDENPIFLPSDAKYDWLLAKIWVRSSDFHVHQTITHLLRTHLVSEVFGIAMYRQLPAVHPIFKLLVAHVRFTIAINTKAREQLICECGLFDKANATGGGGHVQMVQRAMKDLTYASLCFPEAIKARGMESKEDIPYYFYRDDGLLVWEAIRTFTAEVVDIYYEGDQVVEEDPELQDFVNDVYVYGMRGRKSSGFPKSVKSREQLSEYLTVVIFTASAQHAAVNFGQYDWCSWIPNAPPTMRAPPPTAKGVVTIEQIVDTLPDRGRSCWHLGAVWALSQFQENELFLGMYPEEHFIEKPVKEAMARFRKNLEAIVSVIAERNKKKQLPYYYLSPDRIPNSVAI
Protocol: Following blood density centrifugation and cell population separation, PMNL was recovered from the pellet after hypotonic lysis of erythrocytes. Freshly isolated PMNL (1 × 10^6 cells/mL) in PBS buffer pH 7.4 with glucose (1 mg/mL) and CaCl2 (1 mM) was pre-incubated with the test compounds for 10 min at 37 °C. Then, 5-lipoxygenase (5-LO) product formation was started by addition of 2.5 μM Ca^2+-ionophore A23187 plus 20 μM arachidonic acid. The reaction was stopped after 10 min at 37 °C with 1 mL of ice-cold methanol containing 200 ng PGB1 as internal standard. Major 5-LO products (LTB4, trans-LTB4, epi-trans-LTB4, and 5-HETE) were extracted by SPE using Sep-Pak C18 35 cc Vac Cartridges (Waters, Milford, MA, USA) and analysed by UPLC-MS/MS as described by Pein et al..

Human recombinant 5-LO = target: T2, Human recombinant 5-LO (Homo sapiens, UniProt P09917); assay: 5-Lipoxygenase inhibition in a cell-free assay; assay type: biochemical; conditions: 3 µM; % relative to vehicle (DMSO); read-out: 5-LO Residual Activity (Cell-Free)
T2 construct: made in house
T2 sequence (P09917 1-674): T1 sequence (P09917 1-674)
Protocol: Human recombinant 5-LO was expressed and isolated as described before, and immediately used for activity assays after isolation. The 5-LO (0.5 µg, in 1 mL PBS pH 7.4 containing 1 mM EDTA) was pre-incubated with the test compounds for 10 min at 4 °C and pre-warmed for 30 s at 37 °C. 5-LO product formation was initiated by sequential addition of 1 mM CaCl2 and 20 μM arachidonic acid. After 10 min at 37 °C, the reaction was terminated by addition of 1 mL ice-cold methanol containing 200 ng PGB1 as internal standard. Formed 5-LO products (trans-LTB4, epi-trans-LTB4, and 5-HETE) were extracted using Sep-Pak C18 35 cc Vac Cartridges and analysed by UPLC-MS/MS as previously described.

[2] = UV spectrophotometric analysis of compounds in solution; assay type: physicochemical; conditions: at ʎmax, Lambert–Beer equation
Protocol: The synthesized compounds were solubilised in DMSO and diluted in MeOH, and the absorbance of the 10 µg/mL solution was measured between 290–400 nm with a UV-Vis spectrophotometer (SHIMADZU UV-2600 240 V, 1 cm quartz cell at 1 nm intervals). The absorbance at wavelength λ is related to the transmittance T(λ) via the Equation (1): A(λ) = −Log[T(λ)](1) where T(λ) is the fraction of incident irradiance transmitted by the sample. […]
The molar extinction coefficient was calculated with the absorbance recorded at the ʎmax applying the Lambert–Beer equation.

[3] = Photostability of O/W emulsions under solar simulator; assay type: physicochemical; conditions: O/W emulsion on PMMA
Protocol: Oil-in-water (O/W) emulsions containing individual filters were spread on PMMA sheet and irradiated with a solar simulator by applying different doses of UVA equivalent to an erythema effective radiant exposure of 100 J/m^2. Photostability was assessed by analysing the spectral transmittance, before and after irradiation, of the sunscreen thin film, measured before and after exposure from 290 to 400 nm. The residual percentages of SPF in vitro (%SPFeff.) and UVAPF (%UVAPFeff.) were calculated according to Equations (6) and (7), respectively. When the %SPFeff. and %UVAPFeff. are greater than or equal to 80, according to current regulations, a filter can be considered photostable [37].
To evaluate the effectiveness and safety profile of a sunscreen formulation, it is necessary to provide data on its photostability. Photodegradation data can be obtained by recording the pre- and post-irradiation transmittance spectra of PMMA plates with finger-coat formulations exposed to a dose of UVA capable of causing erythema. This method, established by Garoli et al., is used to determine photostability. The sun protection layer’s transmission in the range of 290–400 nm is recorded before and after exposure to sunlight, following the protocol.
The residual percentages of SPF in vitro (%SPFeff.) and UVAPf (%UVAPfeff.) were calculated using Equations (6) and (7) and are listed in Table 4. A filter can be classified as photostable if the %SPFeff. is greater than or equal to 80, according to regulatory standards. %SPFeff. = in vitro SPFafter/in vitro SPFbefore × 100(6) %UVAPfeff. = UVAPfafter/UVAPfbefore × 100(7) where SPFafter and SPFbefore are the SPF values calculated from the software after and before solar irradiation, and UVAPfafter and UVAPfbefore are the UVAPf values calculated from the software after and before solar irradiation.

[4] = In vitro filtering parameters of O/W sunscreen formulation on PMMA plates; conditions: 3% in O/W sunscreen formulation
Protocol: Synthesized compounds were incorporated at 3% concentration in a suitable oil-in-water (O/W) emulsion for cosmetic use as sunscreen.
INCI: Aqua, Glycerin, Xanthan Gum, Phenoxyethanol (and) Ethylhexylglycerin, Tribehenin PEG-20 Esters, Cetearyl Alcohol, Dicaprylyl Carbonate, PPG 26 Buteth-26 (and) PEG 40 Hydrogenated Castor Oil, C12-15 Alkyl Benzoate, Sodium hydroxide (sol. 10%).
A protocol previously reported by us was adopted. Briefly, 32.5 mg of each compound formulation was spread on the rough surface of 5 × 5 cm^2 PMMA plates in the form of small drops of approximately equal mass, in triplicate. The plates were placed in the dark for 15–30 min to allow the formation of a sun-stabilised standard layer and then inserted into the instrument and measured at five different points on each plate (UV transmittance range 290–400 nm). The blank was a plate coated with 32.5 mg glycerine, chosen for its non-fluorescence and UV transparency. In addition, in vitro SPF, UVAPF and ʎc values were calculated according to Equations (2)–(4) above. To evaluate the booster effect of selected synthesized compounds, they were incorporated at 3% concentration in an oil-in-water (O/W) sunscreen formulation with fixed SPF and UVAPf values (30 and 10, respectively).
Aiming to create compounds with diverse biological activities, the synthesized 2-styrylbenzothiazoles were examined for potential applications in sunscreens. Each candidate was incorporated into a standard cosmetic formulation at a concentration of 3% and subjected to photoprotective efficacy testing using the Diffey–Robson method. The formulation comprised an oil-in-water (O/W) emulsion suitable for sunscreen use, with each benzothiazole derivative being heat-solubilized in the oil phase and then dispersed into the emulsion using a turbo emulsifier. The mixture was then cooled, and the emulsion was spread onto polymethylmethacrylate (PMMA) plates before recording the transmittance spectra. The SPF value, UVA protection factor value (UVAPF), the […], and the critical wavelength (λc) were determined from the transmittance spectra using SPF calculator software and are presented in Table 3. These parameters are essential for evaluating the efficacy of potential sunscreen products.

PMNL = assay: ROS production in PMA-stimulated PMNL; assay type: cell-based, human; conditions: 10 µM, mean ± SD
Protocol: After 10 min at 37 °C, PMA (0.1 μM) was added. The fluorescence emission at 530 nm was measured after excitation at 485 nm in a thermally controlled (37 °C) NOVOstar microplate reader (BMG Lab technologies GmbH, Offenburg, Germany). […] ROS generation was induced by phorbol-12-myristate-13-acetate (PMA), a widely recognized agent for stimulating ROS production in neutrophils and enhancing endogenous superoxide formation. Diphenyleneiodonium (DPI, 10 µM), a NADPH oxidase inhibitor, served as a positive control. Through this assay, we could assess the potential interaction of our compounds with intracellular ROS production and their capacity to act as radical scavengers within a relevant cellular context. Furthermore, the outcomes provided additional insights into their inhibitory mechanism and helped to determine whether they act directly or non-specifically, as there is evidence that an impact on the ROS levels in PMNL could be translated to modulation of 5-LO activity in the cellular environment. […] With those data in hand, together with 5-LO inhibition assay outcomes, a direct inhibition of the enzyme stands as the best fitting option regarding the mechanism of action of compounds BZTst4 and BZTst6. […] This phenomenon was not further explored because such investigation was beyond the scope of this work.

[5] = test system: human melanoma Colo38 cells; assay: Cell growth inhibition assay, Colo38; assay type: cell-based; conditions: 24 h incubation; mean ± SD
Protocol: Cell growth inhibition analyses were performed on human melanoma Colo38 cells and skin HaCat keratinocytes. Human melanoma Colo38 cells were kindly given by Dr. Patrizio Giacomini (Laboratory of Immunology, Regina Elena Institute, Rome, Italy). HaCat cells were obtained from Istituto Zooprofilattico Sperimentale della Lombardia e dell’Emilia-Romagna, Brescia, Italy. Cells were seeded at 40,000 cells/mL and 25,000 cells/mL, respectively. Colo38 cells were maintained in RPMI 1640, supplemented with 10% foetal bovine serum (FBS), penicillin (100 Units/mL), and streptomycin (100 µg/mL). HaCat cells were maintained in DMEM, supplemented with 10% fatal bovine serum (FBS), penicillin (100 Units/mL), streptomycin (100 µg/mL) and glutamine (2 mM); the incubation was performed at 37 °C in a 5% CO2 atmosphere. Compounds were dissolved in DMSO to obtain 50 mM stock solutions and diluted before cell treatment in MeOH. The tested compounds were added at serial dilutions to the cell cultures (from 0.1 to 100 µM) and incubated for 24 h further. Cells were then harvested, suspended in physiological solution, and counted with a Z2 Coulter Counter (Coulter Electronics, Hialeah, FL, USA). The number of cells/mL and the IC50 values were determined when untreated cells were in the log phase of cell growth. Samples of vehicles and untreated cells were included in each plate. Cisplatin was used as positive control for the HaCat cells, while N1-(4-arylidene)-1H-(2-OH-4-N(Et)2-phenyl)-[d]imidazole-2-carbohydrazide was used as positive control for the Colo38 cell line.

remaining activity at 3 µM [1]: 31.3 ± 12.7%
remaining activity at 3 µM (Human recombinant 5-LO): 28.6 ± 7.38%
Compound: CC(c1cc2ccccc2s1)N(O)C(N)=O (centres unmarked) [Zileuton, zileuton, reference compound]

Compound: O=S(=O)(O)c1ccc2[nH]c(-c3ccccc3)nc2c1 [PBSA, 2-Phenyl-1H-Benzimidazole-5-Sulphonic Acid, reference compound]
Ɛ (molar extinction coefficient) [2]: 23,881.86 dm^3 mol^−1 cm^−1
%UVAPfeff. ([3]; residual UVAPF after solar irradiation): 100.00%
%SPFeff. ([3]; residual in vitro SPF after solar irradiation): 103.66%
SPF [4]: 1.91
UVA/UVB [4]: 0.67
UVAPF [4]: 1.13
ʎc (critical wavelength) [4]: 357 nm

Compound: c1ccc2c(c1)[I+]c1ccccc1-2 [DPI, Diphenyleneiodonium, reference compound]
ROS Production (% of Control) (PMNL): 16.44 ± 2.14 % of control

IC50 [5]: 700 ± 60 nM
Compound: N^1-(4-arylidene)-1H-(2-OH-4-N(Et)2-phenyl)-[d]imidazole-2-carbohydrazide [Cmp 13, reference compound]
